Values of other authors, collected in US12569481B2, “Methods of treatment for gastrointestinal motility disorders” (Vanderbilt University, priority 2020, dated 2026).

Legend:
[1] = target: cardiac late sodium current (late INa) (Homo sapiens, UniProt Q14524)
[2] = target: T1, sodium current in human colon SMCs (Homo sapiens, UniProt Q14524)
T1 construct: sodium current in human colon SMCs; endogenous in cells; host or cells: human colon smooth muscle cells (SMCs)

[3] = not given; remark: listed apart in the source
[4] = tested on: human colon muscle strips
[5] = target: KCNH2-encoded hERG K+ channels (Homo sapiens, UniProt Q12809); details: channels found in cardiac muscle and intestinal smooth muscle
[6] = room temperature; over-encapsulated 500 mg extended release tablets

cardiac late sodium current (late INa), sequence (Q14524 whole entry): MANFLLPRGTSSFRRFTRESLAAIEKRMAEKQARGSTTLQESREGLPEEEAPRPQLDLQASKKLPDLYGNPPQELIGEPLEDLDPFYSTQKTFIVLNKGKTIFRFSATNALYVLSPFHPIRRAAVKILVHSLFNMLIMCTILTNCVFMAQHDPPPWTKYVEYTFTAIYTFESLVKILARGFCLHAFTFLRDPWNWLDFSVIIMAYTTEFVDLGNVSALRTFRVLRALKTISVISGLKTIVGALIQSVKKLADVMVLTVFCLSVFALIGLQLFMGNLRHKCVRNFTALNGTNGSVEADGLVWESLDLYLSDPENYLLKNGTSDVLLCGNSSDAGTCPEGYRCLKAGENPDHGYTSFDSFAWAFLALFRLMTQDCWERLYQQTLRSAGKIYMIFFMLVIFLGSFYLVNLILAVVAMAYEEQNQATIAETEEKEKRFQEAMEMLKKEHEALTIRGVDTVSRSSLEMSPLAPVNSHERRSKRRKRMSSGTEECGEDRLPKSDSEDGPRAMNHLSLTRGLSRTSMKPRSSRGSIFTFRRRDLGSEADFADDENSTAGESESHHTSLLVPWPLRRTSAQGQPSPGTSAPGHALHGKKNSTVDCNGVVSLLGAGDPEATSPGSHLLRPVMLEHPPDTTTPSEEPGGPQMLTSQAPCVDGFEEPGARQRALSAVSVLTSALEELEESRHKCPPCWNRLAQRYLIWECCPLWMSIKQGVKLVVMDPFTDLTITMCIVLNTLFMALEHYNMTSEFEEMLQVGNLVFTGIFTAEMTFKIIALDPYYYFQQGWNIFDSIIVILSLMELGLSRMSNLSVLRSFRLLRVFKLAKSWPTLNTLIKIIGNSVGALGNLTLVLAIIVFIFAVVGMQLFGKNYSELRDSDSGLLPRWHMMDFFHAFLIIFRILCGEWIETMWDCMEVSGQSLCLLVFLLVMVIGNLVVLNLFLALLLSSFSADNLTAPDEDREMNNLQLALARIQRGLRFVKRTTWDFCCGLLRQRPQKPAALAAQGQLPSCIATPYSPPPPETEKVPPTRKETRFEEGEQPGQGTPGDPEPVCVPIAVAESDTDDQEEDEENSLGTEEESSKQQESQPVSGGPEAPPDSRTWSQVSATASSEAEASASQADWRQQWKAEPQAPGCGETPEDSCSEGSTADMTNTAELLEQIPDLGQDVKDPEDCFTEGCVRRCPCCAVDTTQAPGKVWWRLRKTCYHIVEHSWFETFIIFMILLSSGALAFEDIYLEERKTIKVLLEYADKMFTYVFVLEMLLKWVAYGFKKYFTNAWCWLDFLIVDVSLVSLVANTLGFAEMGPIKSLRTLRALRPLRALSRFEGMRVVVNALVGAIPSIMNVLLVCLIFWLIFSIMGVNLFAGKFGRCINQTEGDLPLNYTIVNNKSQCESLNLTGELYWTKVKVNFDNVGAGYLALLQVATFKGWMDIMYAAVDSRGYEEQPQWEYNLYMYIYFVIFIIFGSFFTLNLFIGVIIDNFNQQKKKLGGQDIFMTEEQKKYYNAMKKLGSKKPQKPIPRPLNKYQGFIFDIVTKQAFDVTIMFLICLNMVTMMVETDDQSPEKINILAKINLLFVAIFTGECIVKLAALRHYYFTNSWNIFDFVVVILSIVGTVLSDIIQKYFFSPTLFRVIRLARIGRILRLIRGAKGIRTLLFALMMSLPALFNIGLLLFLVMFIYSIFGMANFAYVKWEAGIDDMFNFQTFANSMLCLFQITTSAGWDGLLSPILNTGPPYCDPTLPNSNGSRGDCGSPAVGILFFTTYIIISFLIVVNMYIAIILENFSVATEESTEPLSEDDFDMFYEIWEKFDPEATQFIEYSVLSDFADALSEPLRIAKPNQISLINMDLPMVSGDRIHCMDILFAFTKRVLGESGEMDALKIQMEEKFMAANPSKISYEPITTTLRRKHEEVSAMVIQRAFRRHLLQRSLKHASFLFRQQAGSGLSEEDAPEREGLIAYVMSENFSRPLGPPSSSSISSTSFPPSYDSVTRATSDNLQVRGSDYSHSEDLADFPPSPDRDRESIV
KCNH2-encoded hERG K+ channels, sequence (Q12809 whole entry): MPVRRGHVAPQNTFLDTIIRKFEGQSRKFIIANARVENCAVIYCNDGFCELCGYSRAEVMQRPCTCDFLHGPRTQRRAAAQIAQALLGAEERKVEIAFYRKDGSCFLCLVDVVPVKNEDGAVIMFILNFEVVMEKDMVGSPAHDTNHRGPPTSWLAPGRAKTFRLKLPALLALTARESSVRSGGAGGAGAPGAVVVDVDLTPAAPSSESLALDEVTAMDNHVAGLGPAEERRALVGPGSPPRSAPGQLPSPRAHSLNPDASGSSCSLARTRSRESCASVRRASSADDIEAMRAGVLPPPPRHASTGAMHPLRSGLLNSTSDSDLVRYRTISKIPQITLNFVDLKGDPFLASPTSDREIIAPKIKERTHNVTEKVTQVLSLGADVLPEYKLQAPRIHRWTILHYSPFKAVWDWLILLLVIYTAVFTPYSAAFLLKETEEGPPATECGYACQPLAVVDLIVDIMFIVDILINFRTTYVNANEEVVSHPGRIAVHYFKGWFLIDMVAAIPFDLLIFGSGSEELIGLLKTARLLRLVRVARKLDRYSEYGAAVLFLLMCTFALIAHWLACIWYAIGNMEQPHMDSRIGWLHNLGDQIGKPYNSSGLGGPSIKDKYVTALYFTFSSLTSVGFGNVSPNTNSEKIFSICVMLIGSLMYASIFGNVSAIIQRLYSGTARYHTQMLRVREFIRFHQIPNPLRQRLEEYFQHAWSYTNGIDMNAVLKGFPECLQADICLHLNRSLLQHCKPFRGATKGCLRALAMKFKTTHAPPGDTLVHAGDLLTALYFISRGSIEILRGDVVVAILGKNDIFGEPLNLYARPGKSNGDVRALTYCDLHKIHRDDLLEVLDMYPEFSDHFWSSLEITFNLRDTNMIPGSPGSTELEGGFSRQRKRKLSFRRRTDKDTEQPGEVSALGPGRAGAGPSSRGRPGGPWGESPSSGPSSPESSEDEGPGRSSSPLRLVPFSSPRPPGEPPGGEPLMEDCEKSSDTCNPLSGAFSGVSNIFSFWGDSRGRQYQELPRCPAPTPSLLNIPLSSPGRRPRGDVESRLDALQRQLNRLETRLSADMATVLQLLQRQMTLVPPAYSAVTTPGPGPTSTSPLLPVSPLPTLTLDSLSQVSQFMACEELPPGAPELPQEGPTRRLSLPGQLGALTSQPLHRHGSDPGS

- metabolism (cytochrome P-450 3A enzyme (CYP3A) pathway in the liver): rapidly metabolized
- half-life (in vivo): seven
- ingested ranolazine excreted in the urine (ingested, urine): At least 70%
- selectivity for late INa vs peak INa ([1]; late INa vs peak INa): nine
- inhibition of cardiac late sodium current (late INa) ([1]; residual Na+ flowing after peak INa during an action potential): inhibitor
- storage time [6]: up to 12 months
Compound: COc1ccccc1OCC(O)CN1CCN(CC(=O)Nc2c(C)cccc2C)CC1 (centres unmarked) [Ranolazine]
- effect on peak amplitude and mechanosensitivity of sodium current [2]: blocks both peak amplitude and mechanosensitivity
- patients experiencing the most common side effects ([3]; dizziness, nausea, constipation, and headache): less than 2%
- safety and tolerability ([3]; used properly and not concurrently with contraindicated drugs): safe and well-tolerated
- effect on contractility [4]: decreases contractility
- block of KCNH2-encoded hERG K+ channels [5]: block
